We go through 2 molecules from patent US20100056983A1, “Treatment of cancer using photodynamic therapy” (Health Research, Inc., priority 2007, published 2010).

Marks after values point to notes of the source that are not given here.

A short description of data set [1]: Ratio of normal tissue levels of two photosensitizers in mice to tumor levels. The format is in vivo. Particulars: 24 h post injection. An excerpt:
A table showing relative concentrations in normal tissue and cancer tissue for various tissue types is shown below. Ratios are shown in the form of concentration in normal tissue/concentration in tumor tissue. Lower numbers thus represent less PDT agent (HPPH or porfimer sodium) in normal tissue relative to concentration in tumor tissue. Lower concentrations in normal tissue would be expected to result in less tissue damage at tumor concentrations sufficient to destroy tumor tissue.
Ratios were obtained by dividing actual amounts of the photosensitizer in a given tissue by the amount in the tumor.
Data at 24 h post injection were used since this is the time the mice are treated by light, generally from a laser at non-thermal dose rates.

Data set [2] is described as follows: Duration of cutaneous photosensitivity after the photosensitizer. The format is in vivo. The source says: Further, porfimer sodium is activated by light at 630 nm, which is suboptimal for tissue penetration. In addition, in tissues found in the upper respiratory system, side effects to normal tissue proximate to a tumor site has been greater than desirable, e.g. edema and normal tissue destruction, sometimes contributing to weeks for recovery and in some cases possibly causing permanent injury to normal proximate tissue. These drawbacks have led to a search for other photosensitizers without these limitations. This is especially important with respect to cancers that interfere with respiration, e.g. nose, mouth, pharynx, larynx and trachea. Temporary interference with digestive function can be tolerated since the body can cope without food input for a significant period of time and additionally, intravenous feeding can be readily done for temporary nutrition. The same case can of course not be made when respiration is involved since interference with respiration for even a short period is exceedingly distressful and in extreme cases can be fatal. In the case of cancers that involve the upper respiratory system it is therefore exceedingly important that damage to normal tissue be avoided. […]

The subject of data set [3] is cancers that involve epithelial type tissue in the upper respiratory system. The experiment in a line: Effective photosensitizer dose for PDT of cancers in the upper respiratory system. It counts as in vivo, human. Here is the method: HPPH is effective at doses of only 0.08 to 0.13 mg/kg of body weight (3.5 mg/m2 of body surface area) versus a minimum of 2 mg/kg of body weight for porfimer sodium.

In data set [4] the test system is high grade dysplasia / Barrett's mucosa. To be noted: 2 mg/kg, 630±5 nm, 100 to 250 joules/cm, cited from earlier work.
Data set [5] deals with T1 recurrent lesions. Particulars: 26 patients, follow up of 6 to 51 months; cited from earlier work.
Data set [6] has as its system squamous cell carcinoma of the larynx. Particulars: cited from earlier work.
The conditions of data set [7]: patients after PDT; cited from earlier work.
In data set [8] the test system is squamous cell carcinoma on their larynx. The data set can be described thus: HPPH-PDT of a patient with squamous cell carcinoma on the larynx (Example 1). It counts as in vivo, human. As to the method:
A person presented with a squamous cell carcinoma on their larynx. They refused surgery and radiation therapy and chose photodynamic therapy treatment using HPPH (2-[1-hexyloxyethyl]-2-devinyl pyropheophorbide a). They were infused over one hour with HPPH at 4 mg/m^2 (about 0.1 mg/kg). The following day they received non-thermal low power laser light treatment (150 mw/cm) at 665 nm in order to activate the photodynamic process. The light was delivered by a single quartz fiber treaded through a laryngoscope. They received 50 Joules/cm of the 665 nm light over 5.5 min.

The subject of data set [9] is squamous cell carcinoma of the floor of the mouth. The data set can be described thus: HPPH-PDT of a patient with squamous cell carcinoma of the floor of the mouth (Example 2). The format is in vivo, human. Here is the method:
A person presented with a squamous cell carcinoma of the floor of the mouth. They chose to have photodynamic therapy with HPPH (2-[1-hexyloxyethyl]-2-devinyl propheophorbide—a) rather than surgery or radiation therapy. They were infused with 4 mg/m^2 HPPH. The following day they received non-thermal low power laser light (150 mw/cm) at 665 nm in order to activate photodynamic process. The light was delivered by a single quartz fiber threaded through a laryngoscope. They received 50 Joules/cm of the 665 nm light over 5.5 min. […] This was resolved when examined 30 days after treatment.

The mark [10] stands for this setting: normalized to 5 mg/kg from data obtained at 27 mg/kg.
Setting [11] is: 4 mg/m^2 HPPH, 50 Joules/cm at 665 nm.

Consider porfimer sodium, for which, in data set [1] (setting [10]), the “Ratio concentration in normal tissue/concentration in tumor tissue: Adrenals” value is 6.5^###, the “Ratio concentration in normal tissue/concentration in tumor tissue: Brain” value was 0.05^###, the “Ratio concentration in normal tissue/concentration in tumor tissue: Pancreas” value is on record as 4.3^### and the “Ratio concentration in normal tissue/concentration in tumor tissue: Spleen” value was 3.1^###. Further, the “Ratio concentration in normal tissue/concentration in tumor tissue: Urinary Bladder” value in data set [1] (setting [10]) is listed as 5.9^###. For the same molecule, in [1], the “Ratio concentration in normal tissue/concentration in tumor tissue: Kidney” value was found to be 4, the “Ratio concentration in normal tissue/concentration in tumor tissue: Liver” value is listed as 7, the “Ratio concentration in normal tissue/concentration in tumor tissue: Lung” value came out at 1.7 and the “Ratio concentration in normal tissue/concentration in tumor tissue: Muscle” value came to 0.33. Besides, in [1], the “Ratio concentration in normal tissue/concentration in tumor tissue: Skin” value was “about 0.93” and the Absolute Tumor Levels is 1.05 µg/g. In [1] (listed as PHOTOFRIN), the “Ratio concentration in normal tissue/concentration in tumor tissue: Skin” value was determined as 0.93. The “Duration of prolonged cutaneous photosensitivity” value in [2] (patients after PDT) was 4-6 weeks. Further, in data set [3] (with light exposure (HPPH 665±5 nm)), the Effective dose is listed as ≥ 2 mg/kg of body weight. In data set [4] (100 patients), the “Destruction of high grade dysplasia” value is “all patients treated” and the “Patients with complete ablation of Barrett's mucosa” value is 43%. Moreover, in data set [4] (all patients treated), the “Patients with esophageal strictures” value is 34%. Also, in [4], the “Patients with complete ablation of Barrett's mucosa with PDT treatment only” value is 8% and the “Patients with complete ablation who required thermal ablation of small residual islands” value was 35%. Besides, in data set [5], the Complete response is on record as 77%. The Recurrences in data set [6] (117 patients treated for cure, follow-up to 189 months (mean 84 months)) is listed as 10. The Adverse reactions entry in data set [6] (117 patients with squamous cell carcinoma of the larynx) was “edema and erythema”. In addition, the “Period of complete protection from sunlight and bright light because of skin photosensitization” value in data set [7] is “up to 90 days”.
`CCCCCCOC(C)c1c(C)c2cc3nc(c4c5[nH]c(cc6nc(cc1[nH]2)C(C)=C6CC)c(C)c5C(=O)C4)[C@@H](CCC(=O)O)[C@@H]3C` (stereo partly shown) [HPPH, 2-(1-hexyloxyethyl)-2-devinyl pyropheophorbide-a]: in data set [1], the “Ratio concentration in normal tissue/concentration in tumor tissue: Adrenals” value worked out at 0.95, the “Ratio concentration in normal tissue/concentration in tumor tissue: Brain” value is on record as 0.01, the “Ratio concentration in normal tissue/concentration in tumor tissue: Kidney” value amounted to 0.12 and the “Ratio concentration in normal tissue/concentration in tumor tissue: Liver” value was 1.9. For the same molecule, in [1], the “Ratio concentration in normal tissue/concentration in tumor tissue: Lung” value came out at 2.7, the “Ratio concentration in normal tissue/concentration in tumor tissue: Muscle” value stood at 0.095, the “Ratio concentration in normal tissue/concentration in tumor tissue: Pancreas” value is recorded as 0.11 and the “Ratio concentration in normal tissue/concentration in tumor tissue: Spleen” value is listed as 0.14. For the same molecule, in data set [1], the “Ratio concentration in normal tissue/concentration in tumor tissue: Urinary Bladder” value was 0.11 and the Absolute Tumor Levels was found to be 3 µg/g. Moreover, in [8] (setting [11]), the “Effect upon normal tissue” value is listed as “No affect upon normal tissue” and the Skin photosensitivity result is given as “no skin photosensitivity”. Also, in data set [8] (4 mg/m^2 HPPH, 50 Joules/cm at 665 nm next day, second follow up at 3 months), the Response to treatment entry is “complete response”. In addition, in data set [8] (completely resolved at first follow up 30 days after treatment), the “Adverse effects after treatment” value is “transient edema and hoarseness of voice”. In data set [9] (setting [11]), the “Effect upon normal tissue” value was “No effect upon normal tissue” and the Skin photosensitivity entry is given as “no skin photosensitivity”. For the same molecule, the Response to treatment entry in data set [9] (4 mg/m^2 HPPH, 50 Joules/cm at 665 nm next day, follow up at 6 months, confirmed by biopsy) was “complete response”. Moreover, in data set [9] (controlled with analgesics, resolved when examined 30 days after treatment), the “Adverse effects after treatment” value was “transient moderate pain at the treatment site”. Further, the “Duration of prolonged cutaneous photosensitivity” value in data set [2] (in vivo) is on record as 1-2 weeks. Besides, in data set [3] (with light exposure at 665±5 nm), the “Effective dose per body surface area” value was 3.5 mg/m2 of body surface area.
